Results reported in patent US7348323B2, “Pyrrolo [2,3-c] pyridine derivatives” (Hoffmann-La Roche Inc., priority 2005, dated 2008).

Biological target: T1, histamine 3 receptor (H3R) (Homo sapiens, UniProt Q9Y5N1)
T1 construct: expressed in transfected cells; host or cells: CHO cells (HR3-CHO)
Test: Competition binding assay with 3H-(R)α-methylhistamine on membranes of the human HR3-CHO cell line
Conditions: membrane of the human HR3-CHO cell line; 3H(R)α-Methylhistamine 1 nM; Ki calculated from IC50 by Cheng-Prusoff equation
Protocol: Binding Assay with ^3H-(R)α-methylhistamine
Saturation binding experiments were performed using HR3-CHO membranes prepared as described in Takahashi, K, Tokita, S., Kotani, H. (2003) J. Pharmacol. Exp. Therapeutics 307, 213-218.
An appropriate amount of membrane (60 to 80 μg protein/well) was incubated with increasing concentrations of ^3H(R)α-Methylhistamine di-hydrochloride (0.10 to 10 nM). Non specific binding was determined using a 200 fold excess of cold (R)α-Methylhistamine dihydrobromide (500 nM final concentration). The incubation was carried out at room temperature (in deep-well plates shaking for three hours). The final volume in each well was 250 μl. The incubation was followed by rapid filtration on GF/B filters (pre-soaked with 100 μl of 0.5% PEI in Tris 50 mM shaking at 200 rpm for two hours). The filtration was made using a cell-harvester and the filter plates were then washed five times with ice cold washing buffer containing 0.5 M NaCl. After harvesting, the plates were dried at 55° C. for 60 min, then we added scintillation fluid (Microscint 40, 40 microl in each well) and the amount of radioactivity on the filter was determined in Packard top-counter after shaking the plates for two hours at 200 rpm at room temperature.
Binding Buffer: 50 mM Tris-HCl pH 7.4 and 5 mM MgCl2x6H2O pH 7.4. Washing Buffer: 50 mM Tris-HCl pH 7.4 and 5 mM MgCl2x6H2O and 0.5 M NaCl pH 7.4.
Indirect measurement of affinity of H3R inverse agonists: twelve increasing concentrations (ranging from 10 μM to 0.3 nM) of the selected compounds were always tested in competition binding experiments using membrane of the human HR3-CHO cell line. An appropriate amount of protein, e.g. approximately 500 cpm binding of RAMH at Kd, were incubated for 1 hour at room temperature in 250 μl final volume in 96-well plates in presence of ^3H(R)α-Methylhistamine (1 nM final concentration=Kd). […]
All compounds were tested at a single concentration in duplicates. […] Ki's were calculated from IC50 based on Cheng-Prusoff equation (Cheng, Y, Prusoff, W H (1973) Biochem Pharmacol 22, 3099-3108).

T1 sequence (Q9Y5N1 whole entry): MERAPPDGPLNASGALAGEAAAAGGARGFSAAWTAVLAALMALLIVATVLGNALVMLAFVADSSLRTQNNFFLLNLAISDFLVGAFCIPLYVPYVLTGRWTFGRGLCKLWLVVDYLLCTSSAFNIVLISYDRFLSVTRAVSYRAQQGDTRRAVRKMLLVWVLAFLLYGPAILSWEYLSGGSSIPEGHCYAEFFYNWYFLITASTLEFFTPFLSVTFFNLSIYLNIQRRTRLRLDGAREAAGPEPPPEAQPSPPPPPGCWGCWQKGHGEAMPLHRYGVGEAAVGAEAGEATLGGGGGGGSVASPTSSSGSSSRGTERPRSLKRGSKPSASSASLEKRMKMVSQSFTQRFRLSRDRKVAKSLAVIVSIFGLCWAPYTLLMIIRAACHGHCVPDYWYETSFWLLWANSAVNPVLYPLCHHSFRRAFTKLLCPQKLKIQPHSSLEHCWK

Ki | SMILES
63.1 nM | CC(C)N1CCN(c2cc3cc(C(=O)N4CCC(F)(F)CC4)[nH]c3cn2)CC1 [Example 27, (4,4-difluoro-piperidin-1-yl)-[5-(4-isopropyl-piperazin-1-yl)-1H-pyrrolo[2,3-c]pyridin-2-yl]-methanone]
33 nM | O=C(c1cc2cc(N3CCN(C4CCCC4)CC3)ncc2[nH]1)N1CCCC1 [Example 1, [5-(4-Cyclopentyl-piperazin-1-yl)-1H-pyrrolo[2,3-c]pyridin-2-yl]-pyrrolidin-1-yl-methanone]
27.4 nM | CCCNC(=O)c1cc2cc(N3CCN(C4CCCC4)CC3)ncc2[nH]1 [Example 13, 5-(4-cyclopentyl-piperazin-1-yl)-1H-pyrrolo[2,3-c]pyridine-2-carboxylic acid propylamide]
